Reference: paper PMC5218480 (PLoS ONE, 2017)

Tested on: MV-4-11 cells
Experiment: Gene expression microarray analysis (Affymetrix PrimeView) and GSEA
Type: cell-based, human
Set-up: RFU PODN (11730768_x_at) / Fold change /veh PODN (11730768_x_at) / RFU LINC00158 (11744669_a_at) / Fold change /veh LINC00158 (11744669_a_at) / RFU DUSP10 (11751237_a_at) / Fold change /veh DUSP10 (11751237_a_at) / RFU ID3 (11757404_x_at) / Fold change /veh ID3 (11757404_x_at) / RFU PLEKHG5 (11737974_s_at) / Fold change /veh PLEKHG5 (11737974_s_at) / RFU LRRC4B (11730491_at) / Fold change /veh LRRC4B (11730491_at) / RFU GIMAP4 (11747438_a_at) / Fold change /veh GIMAP4 (11747438_a_at) / RFU KRT8 (11758183_x_at) / Fold change /veh KRT8 (11758183_x_at) / RFU CNN1 (11734310_a_at) / Fold change /veh CNN1 (11734310_a_at) / RFU VPS37D (11726825_at) / Fold change /veh VPS37D (11726825_at) / RFU C10orf10 (11716522_x_at) / Fold change /veh C10orf10 (11716522_x_at) / RFU KIR2DL2 /// KIR2DL4 /// KIR2DL5A /// KIR2DL5B /// KIR2DS1 /// KIR2DS2 /// KIR2DS3 /// KIR2DS4 /// KIR3DL3 /// KIR3DL3 /// KIR3DS1 (11738374_at) / Fold change /veh KIR2DL2 /// KIR2DL4 /// KIR2DL5A /// KIR2DL5B /// KIR2DS1 /// KIR2DS2 /// KIR2DS3 /// KIR2DS4 /// KIR3DL3 /// KIR3DL3 /// KIR3DS1 (11738374_at) / RFU C1QL1 (11718748_at) / Fold change /veh C1QL1 (11718748_at) / RFU TMPRSS4 (11747572_a_at) / Fold change /veh TMPRSS4 (11747572_a_at) / RFU HAMP (11756126_x_at) / Fold change /veh HAMP (11756126_x_at) / RFU RNFT2 (11725882_a_at) / Fold change /veh RNFT2 (11725882_a_at) / RFU NR4A2 (11747474_a_at) / Fold change /veh NR4A2 (11747474_a_at) / RFU ABCC12 (11746883_a_at) / Fold change /veh ABCC12 (11746883_a_at) / RFU TMEM136 (11760407_x_at) / Fold change /veh TMEM136 (11760407_x_at) / RFU CLDN22 /// WWC2 (11732394_at) / Fold change /veh CLDN22 /// WWC2 (11732394_at) / RFU HLA-DPB1 (11760878_x_at) / Fold change /veh HLA-DPB1 (11760878_x_at) / RFU SPINT1 (11716480_a_at) / Fold change /veh SPINT1 (11716480_a_at) / RFU GAP43 (11754022_s_at) / Fold change /veh GAP43 (11754022_s_at) / RFU A4GNT (11735810_at) / Fold change /veh A4GNT (11735810_at) / RFU PRB3 (11715151_x_at) / Fold change /veh PRB3 (11715151_x_at) / RFU TUBB4B (11761932_at) / Fold change /veh TUBB4B (11761932_at) / RFU CAPN14 (11732068_a_at) / Fold change /veh CAPN14 (11732068_a_at) / RFU TMCC2 (11721928_a_at) / Fold change /veh TMCC2 (11721928_a_at) / RFU IRGQ (11745062_a_at) / Fold change /veh IRGQ (11745062_a_at) / RFU FAM174B (11720279_a_at) / Fold change /veh FAM174B (11720279_a_at) / RFU TMPRSS4 (11748680_a_at) / Fold change /veh TMPRSS4 (11748680_a_at) / RFU FAM212B (11763350_a_at) / Fold change /veh FAM212B (11763350_a_at) / RFU PLEKHG5 (11743358_a_at) / Fold change /veh PLEKHG5 (11743358_a_at) / RFU ZSCAN30 (11745921_a_at) / Fold change /veh ZSCAN30 (11745921_a_at) / RFU CMKLR1 (11741424_a_at) / Fold change /veh CMKLR1 (11741424_a_at) / RFU LOC101060620 /// MAPK8IP1 (11723275_at) / Fold change /veh LOC101060620 /// MAPK8IP1 (11723275_at) / RFU SPTSSB (11747773_x_at) / Fold change /veh SPTSSB (11747773_x_at) / RFU PRSS12 (11739890_at) / Fold change /veh PRSS12 (11739890_at) / RFU BIN1 (11741810_x_at) / Fold change /veh BIN1 (11741810_x_at) / RFU WNT11 (11732464_a_at) / Fold change /veh WNT11 (11732464_a_at) / RFU C10orf10 (11716521_a_at) / Fold change /veh C10orf10 (11716521_a_at) / RFU C5orf56 (11738089_at) / Fold change /veh C5orf56 (11738089_at) / RFU CYB561 (11721691_x_at) / Fold change /veh CYB561 (11721691_x_at) / RFU ANKRD19P (11752326_a_at) / Fold change /veh ANKRD19P (11752326_a_at) / RFU OR2T12 /// OR2T33 /// OR2T8 (11738714_s_at) / Fold change /veh OR2T12 /// OR2T33 /// OR2T8 (11738714_s_at) / RFU VCAN (11748164_a_at) / Fold change /veh VCAN (11748164_a_at) / RFU JSRP1 (11732532_at) / Fold change /veh JSRP1 (11732532_at) / RFU KRTAP10-11 (11738290_x_at) / Fold change /veh KRTAP10-11 (11738290_x_at) / RFU MYO3A (11730013_a_at) / Fold change /veh MYO3A (11730013_a_at) / RFU EBF3 (11725865_a_at) / Fold change /veh EBF3 (11725865_a_at) / RFU CAMK2N1 (11719241_x_at) / Fold change /veh CAMK2N1 (11719241_x_at) / RFU C5orf56 (11738088_a_at) / Fold change /veh C5orf56 (11738088_a_at) / RFU OLFML3 (11715873_a_at) / Fold change /veh OLFML3 (11715873_a_at) / RFU LOC100653217 /// NTM (11731650_a_at) / Fold change /veh LOC100653217 /// NTM (11731650_a_at) / RFU MAPK11 (11762145_a_at) / Fold change /veh MAPK11 (11762145_a_at) / RFU FIZ1 (11724087_x_at) / Fold change /veh FIZ1 (11724087_x_at) / RFU OASL (11726364_x_at) / Fold change /veh OASL (11726364_x_at) / RFU SOX15 (11748057_x_at) / Fold change /veh SOX15 (11748057_x_at) / RFU CD79A (11719716_a_at) / Fold change /veh CD79A (11719716_a_at) / RFU HIST1H1D (11736915_at) / Fold change /veh HIST1H1D (11736915_at) / RFU CASKIN2 (11723855_a_at) / Fold change /veh CASKIN2 (11723855_a_at) / RFU LOC730098 (11760151_x_at) / Fold change /veh LOC730098 (11760151_x_at) / RFU OR4N2 (11742367_at) / Fold change /veh OR4N2 (11742367_at) / RFU PRRT2 (11749266_a_at) / Fold change /veh PRRT2 (11749266_a_at) / RFU SNX32 (11753110_a_at) / Fold change /veh SNX32 (11753110_a_at) / RFU CDHR5 (11726645_a_at) / Fold change /veh CDHR5 (11726645_a_at) / RFU RCAN1 (11760418_a_at) / Fold change /veh RCAN1 (11760418_a_at) / RFU FAM167A (11723789_a_at) / Fold change /veh FAM167A (11723789_a_at) / RFU FAM26E (11764081_at) / Fold change /veh FAM26E (11764081_at) / RFU ISYNA1 (11749810_s_at) / Fold change /veh ISYNA1 (11749810_s_at) / RFU ACY1 (11761880_at) / Fold change /veh ACY1 (11761880_at) / RFU 11764098_at / Fold change /veh 11764098_at / RFU SAMD14 (11745864_x_at) / Fold change /veh SAMD14 (11745864_x_at) / RFU NPB (11741838_a_at) / Fold change /veh NPB (11741838_a_at) / RFU TMPRSS6 (11731388_a_at) / Fold change /veh TMPRSS6 (11731388_a_at) / RFU KRTAP10-2 (11738614_at) / Fold change /veh KRTAP10-2 (11738614_at) / RFU ARHGAP8 /// PRR5-ARHGAP8 (11727945_x_at) / Fold change /veh ARHGAP8 /// PRR5-ARHGAP8 (11727945_x_at) / RFU KRTAP5-7 /// NADSYN1 (11734609_at) / Fold change /veh KRTAP5-7 /// NADSYN1 (11734609_at) / RFU RASL12 (11751679_a_at) / Fold change /veh RASL12 (11751679_a_at) / RFU CDKN2B (11736163_a_at) / Fold change /veh CDKN2B (11736163_a_at) / RFU PRF1 (11729649_at) / Fold change /veh PRF1 (11729649_at) / RFU, ZNF638 /// ZNF638-IT1 / Fold change vs veh, ZNF638 /// ZNF638-IT1 / RFU, PANK3 / Fold change vs veh, PANK3 / RFU, SH3YL1 / Fold change vs veh, SH3YL1 / RFU, ZEB2 / Fold change vs veh, ZEB2 / RFU, NRIP1 / Fold change vs veh, NRIP1 / RFU, PTTG1IP / Fold change vs veh, PTTG1IP / RFU, CAPN2 / Fold change vs veh, CAPN2 / RFU, MED14 / Fold change vs veh, MED14 / RFU, SNORA58 / Fold change vs veh, SNORA58 / RFU, C1orf63 / Fold change vs veh, C1orf63 / RFU, LRRFIP1 / Fold change vs veh, LRRFIP1 / RFU, NDUFAF7 / Fold change vs veh, NDUFAF7 / RFU, SLC12A2 / Fold change vs veh, SLC12A2 / RFU, IBTK / Fold change vs veh, IBTK / RFU, ESF1 / Fold change vs veh, ESF1 / Fold change vs veh, TMEM50B / RFU, TAOK1 / Fold change vs veh, TAOK1 / RFU, ACBD3 / Fold change vs veh, ACBD3 / RFU, TMA16 / Fold change vs veh, TMA16 / RFU, RWDD3 / Fold change vs veh, RWDD3 / RFU, BCAT1 / Fold change vs veh, BCAT1 / RFU, EDEM3 / Fold change vs veh, EDEM3 / RFU, TMEM33 / Fold change vs veh, TMEM33 / RFU, WDR75 / Fold change vs veh, WDR75 / RFU, AHCTF1 / Fold change vs veh, AHCTF1 / RFU, TFRC / Fold change vs veh, TFRC / RFU, ZDHHC17 / Fold change vs veh, ZDHHC17 / RFU, NOM1 / Fold change vs veh, NOM1 / RFU, ARL8B / Fold change vs veh, ARL8B / RFU, ZBTB11 / Fold change vs veh, ZBTB11 / RFU, TAMM41 / Fold change vs veh, TAMM41 / RFU, KIAA1704 /// LOC100996395 / Fold change vs veh, KIAA1704 /// LOC100996395 / RFU, ING1 / Fold change vs veh, ING1 / RFU, TRMT61B / Fold change vs veh, TRMT61B / RFU, FUBP3 / Fold change vs veh, FUBP3 / RFU, TP53 / Fold change vs veh, TP53 / RFU, TNKS2 / Fold change vs veh, TNKS2 / RFU, ZFP14 / Fold change vs veh, ZFP14 / RFU, ACTR2 / Fold change vs veh, ACTR2 / RFU, PPP3R1 / Fold change vs veh, PPP3R1 / RFU, PIK3R1 / Fold change vs veh, PIK3R1 / RFU, HNRNPA1 / Fold change vs veh, HNRNPA1 / RFU, RNF170 / Fold change vs veh, RNF170 / RFU, ZNF28 / Fold change vs veh, ZNF28 / RFU, RNGTT / Fold change vs veh, RNGTT / RFU, OGT / Fold change vs veh, OGT / RFU, BRD1 / Fold change vs veh, BRD1 / RFU, MARS / Fold change vs veh, MARS / RFU, ZNF655 / Fold change vs veh, ZNF655 / RFU, FAHD1 / Fold change vs veh, FAHD1 / RFU, BDP1 / Fold change vs veh, BDP1 / RFU, LRRCC1 / Fold change vs veh, LRRCC1 / RFU, ARID1A / Fold change vs veh, ARID1A / RFU, ZNF146 / Fold change vs veh, ZNF146 / RFU, ZNF330 / Fold change vs veh, ZNF330 / RFU, GPN3 / Fold change vs veh, GPN3 / RFU, C9orf123 / Fold change vs veh, C9orf123 / RFU, N4BP2L2 / Fold change vs veh, N4BP2L2 / RFU, ARFIP1 / Fold change vs veh, ARFIP1 / RFU, FAM179B / Fold change vs veh, FAM179B / RFU, BCL10 / Fold change vs veh, BCL10 / RFU, UHRF1BP1L / Fold change vs veh, UHRF1BP1L / RFU, BET1 / Fold change vs veh, BET1 / RFU, CNOT2 / Fold change vs veh, CNOT2 / RFU, ZNF268 / Fold change vs veh, ZNF268 / Fold change vs veh, ZNF507 / RFU, DGCR2 / Fold change vs veh, DGCR2 / RFU, WDSUB1 / Fold change vs veh, WDSUB1 / Fold change vs veh, HSP90B1 /// MIR3652 / RFU, ADSS / Fold change vs veh, ADSS / RFU, GK / Fold change vs veh, GK / RFU, ZNF148 / Fold change vs veh, ZNF148 / RFU, TAF9 / Fold change vs veh, TAF9 / RFU, SLC1A5 / Fold change vs veh, SLC1A5 / RFU, SLMO2 / Fold change vs veh, SLMO2 / RFU, ABCC4 / Fold change vs veh, ABCC4 / RFU, LOC101060439 /// RAP1B / Fold change vs veh, LOC101060439 /// RAP1B / RFU, RFX7 / Fold change vs veh, RFX7 / RFU, GTPBP10 / Fold change vs veh, GTPBP10 / RFU, CNEP1R1 / Fold change vs veh, CNEP1R1 / RFU, BIVM-ERCC5 /// ERCC5 / Fold change vs veh, BIVM-ERCC5 /// ERCC5 / RFU, ILF3 / Fold change vs veh, ILF3 / RFU 11762660_at / Fold change /veh 11762660_at / RFU VCAN (11757783_s_at) / Fold change /veh VCAN (11757783_s_at) / RFU DDX43 (11728927_at) / Fold change /veh DDX43 (11728927_at) / RFU KRT8 (11758188_x_at) / Fold change /veh KRT8 (11758188_x_at) / RFU NKD1 (11759106_at) / Fold change /veh NKD1 (11759106_at) / RFU SRD5A1 (11742802_a_at) / Fold change /veh SRD5A1 (11742802_a_at) / RFU TPSAB1 /// TPSB2 (11721975_s_at) / Fold change /veh TPSAB1 /// TPSB2 (11721975_s_at) / RFU GSTM3 (11746129_a_at) / Fold change /veh GSTM3 (11746129_a_at) / RFU IL23R (11737362_x_at) / Fold change /veh IL23R (11737362_x_at) / RFU TMEM51 (11727254_a_at) / Fold change /veh TMEM51 (11727254_a_at) / RFU PIWIL2 (11732686_x_at) / Fold change /veh PIWIL2 (11732686_x_at) / RFU ORM1 (11744905_x_at) / Fold change /veh ORM1 (11744905_x_at) / RFU CCDC152 (11743942_at) / Fold change /veh CCDC152 (11743942_at) / RFU ECM1 (11717891_a_at) / Fold change /veh ECM1 (11717891_a_at) / RFU IL23R (11748794_a_at) / Fold change /veh IL23R (11748794_a_at) / RFU TNFAIP8L3 (11732012_x_at) / Fold change /veh TNFAIP8L3 (11732012_x_at) / RFU MBOAT4 (11741988_at) / Fold change /veh MBOAT4 (11741988_at) / RFU 11764193_at / Fold change /veh 11764193_at / RFU TMEM53 (11763286_at) / Fold change /veh TMEM53 (11763286_at) / RFU MAGEB2 (11727129_at) / Fold change /veh MAGEB2 (11727129_at) / RFU TMEM200A (11744735_a_at) / Fold change /veh TMEM200A (11744735_a_at) / RFU CCDC152 (11751479_a_at) / Fold change /veh CCDC152 (11751479_a_at) / RFU FAM211A (11726209_a_at) / Fold change /veh FAM211A (11726209_a_at) / RFU RGS16 (11746705_a_at) / Fold change /veh RGS16 (11746705_a_at) / RFU VCAN (11755009_s_at) / Fold change /veh VCAN (11755009_s_at) / RFU RHOB (11743442_s_at) / Fold change /veh RHOB (11743442_s_at) / RFU RGS16 (11720943_a_at) / Fold change /veh RGS16 (11720943_a_at) / RFU RGS16 (11720944_at) / Fold change /veh RGS16 (11720944_at) / RFU, VPS4B / Fold change vs veh, VPS4B / RFU, CREB1 / Fold change vs veh, CREB1 / RFU, DNAJC13 / Fold change vs veh, DNAJC13 / RFU, GNAQ / Fold change vs veh, GNAQ / RFU, CDK5R1 / Fold change vs veh, CDK5R1 / RFU, ZRANB3 / Fold change vs veh, ZRANB3 / RFU, CUL4A / Fold change vs veh, CUL4A / RFU, CCNY / Fold change vs veh, CCNY / RFU, UFL1 / Fold change vs veh, UFL1 / RFU, COG3 / Fold change vs veh, COG3 / RFU, DIAPH2 / Fold change vs veh, DIAPH2 / RFU, SKA2 / Fold change vs veh, SKA2 / RFU, AFF3 / Fold change vs veh, AFF3 / RFU, LMF1 / Fold change vs veh, LMF1 / RFU, IPO11 / Fold change vs veh, IPO11 / RFU, DFFB / Fold change vs veh, DFFB / RFU, FOXP1 / Fold change vs veh, FOXP1 / RFU, CARD8 / Fold change vs veh, CARD8 / RFU, STRN3 / Fold change vs veh, STRN3 / RFU, ADK / Fold change vs veh, ADK / RFU, RASSF2 / Fold change vs veh, RASSF2 / RFU, WIPF1 / Fold change vs veh, WIPF1 / RFU, LARP1B / Fold change vs veh, LARP1B / RFU, RASA1 / Fold change vs veh, RASA1 / RFU, RB1 / Fold change vs veh, RB1 / RFU, PPFIA1 / Fold change vs veh, PPFIA1 / RFU, MAT2A / Fold change vs veh, MAT2A / RFU, CCT5 / Fold change vs veh, CCT5 / RFU, WDR92 / Fold change vs veh, WDR92 / RFU, CUX1 / Fold change vs veh, CUX1 / RFU, TTC7A / Fold change vs veh, TTC7A / RFU, TMEM135 / Fold change vs veh, TMEM135 / RFU, DEPTOR / Fold change vs veh, DEPTOR / RFU, CPM / Fold change vs veh, CPM / RFU, DNAJB6 / Fold change vs veh, DNAJB6 / RFU, CACNA2D3 / Fold change vs veh, CACNA2D3 / RFU, DTX4 / Fold change vs veh, DTX4 / RFU, TFCP2 / Fold change vs veh, TFCP2 / RFU, GMCL1 /// GMCL1P1 / Fold change vs veh, GMCL1 /// GMCL1P1 / RFU, AEBP2 / Fold change vs veh, AEBP2 / RFU, SNHG1 /// SNORD22 /// SNORD25 /// SNORD26 /// SNORD27 /// SNORD28 /// SNORD29 /// SNORD31 / Fold change vs veh, SNHG1 /// SNORD22 /// SNORD25 /// SNORD26 /// SNORD27 /// SNORD28 /// SNORD29 /// SNORD31 / Fold change (Aza/veh), C12orf56 (ProbeSet 11735607_a_at) / Fold change (ACY-1035/veh), C12orf56 (ProbeSet 11735607_a_at) / Fold change (Aza/veh), FGFR1OP (ProbeSet 11751329_s_at) / Fold change (ACY-1035/veh), FGFR1OP (ProbeSet 11751329_s_at) / Fold change (Aza/veh), VPS36 (ProbeSet 11739960_a_at) / Fold change (ACY-1035/veh), VPS36 (ProbeSet 11739960_a_at) / RFU SYPL1 (11715823_x_at) / Fold change /veh SYPL1 (11715823_x_at) / RFU IGFBP7 (11715501_s_at) / Fold change /veh IGFBP7 (11715501_s_at) / RFU REEP3 (11722064_at) / Fold change /veh REEP3 (11722064_at) / RFU IGLL1 (11728026_x_at) / Fold change /veh IGLL1 (11728026_x_at): dose or concentration left out as unconfirmed
Settings: ProbeSet 11758170_s_at; LIST D

Nc1ccc(-c2cccs2)cc1NC(=O)c1ccc2c(c1)cc(C1CC1)n2CCN1CCOCC1 [ACY-1035]
Fold change vs veh, DIAPH2: 1.00
